Assay results published in ChEMBL document CHEMBL1129196, “Studies on the structural feature of S'1 subsite of neprilysin (EC.3.4.24.11): Stereochemical requirement for the enzyme-inhibitor docking process” (Bioorg Med Chem Lett, 1996).

What was measured:
[1] = target: Neprilysin (Homo sapiens, UniProt P08473); test: Compound was evaluated for inhibition of recombinant human neprilysin(NEP).
[2] = target: T1, Angiotensin-converting enzyme (Rattus norvegicus, UniProt P47820); test: Compound was measured for the inhibition of Angiotensin I converting enzyme
T1 sequence (P47820 whole entry): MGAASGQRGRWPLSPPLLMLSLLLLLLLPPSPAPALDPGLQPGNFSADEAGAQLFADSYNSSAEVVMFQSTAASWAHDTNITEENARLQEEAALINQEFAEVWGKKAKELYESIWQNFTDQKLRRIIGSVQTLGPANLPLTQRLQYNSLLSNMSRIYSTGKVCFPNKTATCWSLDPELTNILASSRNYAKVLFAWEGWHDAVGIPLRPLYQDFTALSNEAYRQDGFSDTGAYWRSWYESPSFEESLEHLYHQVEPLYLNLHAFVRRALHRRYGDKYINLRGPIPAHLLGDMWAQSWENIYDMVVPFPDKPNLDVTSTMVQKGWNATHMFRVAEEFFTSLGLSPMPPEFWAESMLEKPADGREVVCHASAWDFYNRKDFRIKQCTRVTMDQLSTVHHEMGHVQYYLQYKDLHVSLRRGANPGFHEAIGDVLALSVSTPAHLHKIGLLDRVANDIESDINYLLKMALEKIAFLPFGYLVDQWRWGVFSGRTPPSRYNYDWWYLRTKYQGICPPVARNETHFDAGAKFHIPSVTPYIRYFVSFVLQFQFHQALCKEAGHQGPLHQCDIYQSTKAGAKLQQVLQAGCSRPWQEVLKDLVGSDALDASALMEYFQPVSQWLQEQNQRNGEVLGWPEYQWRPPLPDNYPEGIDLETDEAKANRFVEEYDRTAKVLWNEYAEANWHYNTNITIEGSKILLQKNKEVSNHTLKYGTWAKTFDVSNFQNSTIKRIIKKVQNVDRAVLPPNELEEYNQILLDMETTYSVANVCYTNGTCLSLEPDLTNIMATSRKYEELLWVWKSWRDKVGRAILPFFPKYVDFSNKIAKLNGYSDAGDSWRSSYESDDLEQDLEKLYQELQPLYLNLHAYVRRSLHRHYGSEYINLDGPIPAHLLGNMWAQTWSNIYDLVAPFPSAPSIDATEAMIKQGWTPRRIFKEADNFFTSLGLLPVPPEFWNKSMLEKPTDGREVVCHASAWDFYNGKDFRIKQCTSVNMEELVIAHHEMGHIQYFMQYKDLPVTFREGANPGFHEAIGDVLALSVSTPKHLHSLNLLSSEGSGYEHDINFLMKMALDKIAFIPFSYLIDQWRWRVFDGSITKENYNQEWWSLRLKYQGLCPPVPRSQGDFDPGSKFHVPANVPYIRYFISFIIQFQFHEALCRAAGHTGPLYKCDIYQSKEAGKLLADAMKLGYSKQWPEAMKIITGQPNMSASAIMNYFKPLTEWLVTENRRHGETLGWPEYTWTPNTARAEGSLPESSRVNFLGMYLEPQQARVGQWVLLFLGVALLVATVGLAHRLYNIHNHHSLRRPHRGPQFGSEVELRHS

Sequence of Neprilysin (P08473 whole entry): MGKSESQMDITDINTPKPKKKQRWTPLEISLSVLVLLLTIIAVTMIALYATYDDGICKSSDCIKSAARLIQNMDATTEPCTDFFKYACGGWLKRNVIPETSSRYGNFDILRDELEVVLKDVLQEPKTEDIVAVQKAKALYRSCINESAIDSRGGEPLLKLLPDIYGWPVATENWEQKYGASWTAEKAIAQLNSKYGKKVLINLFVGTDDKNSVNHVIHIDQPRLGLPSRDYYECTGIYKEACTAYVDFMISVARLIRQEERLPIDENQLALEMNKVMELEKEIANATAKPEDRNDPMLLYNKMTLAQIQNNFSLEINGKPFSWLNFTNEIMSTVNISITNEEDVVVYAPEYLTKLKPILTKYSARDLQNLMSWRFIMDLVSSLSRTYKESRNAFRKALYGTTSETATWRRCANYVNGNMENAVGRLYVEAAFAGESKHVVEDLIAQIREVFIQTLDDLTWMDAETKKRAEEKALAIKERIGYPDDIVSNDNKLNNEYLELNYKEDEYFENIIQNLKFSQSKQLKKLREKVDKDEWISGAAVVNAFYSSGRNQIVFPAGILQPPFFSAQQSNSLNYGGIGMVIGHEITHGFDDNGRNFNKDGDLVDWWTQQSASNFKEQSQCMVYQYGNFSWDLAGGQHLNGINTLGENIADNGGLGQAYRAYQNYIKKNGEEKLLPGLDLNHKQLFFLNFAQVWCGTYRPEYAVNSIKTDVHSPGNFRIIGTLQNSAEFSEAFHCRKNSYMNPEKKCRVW

| Ki [1] [nM] | Ki [2] [nM] | SMILES |
| --- | --- | --- |
| > 100 | – | O=C(O)CNC(=O)C(CS)(Cc1ccccc1)Cc1ccccc1 |
| 408 | – | O=C(O)CNC(=O)/C(=C/c1ccccc1)CS |
| 4.9 | 380 | O=C(O)CNC(=O)/C(=C\c1ccccc1)CS |
| 162 | – | O=C(O)CNC(=O)C1(CS)Cc2ccccc2C1 |
